Experimental data from PubChem BioAssay (NCI).
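Tested at 5 concentrations; 48 h exposure; 96-well plates; endpoints linearly interpolated, else capped at highest concentration. The concentration for 50% growth inhibition is given as GI50. TGI marks complete inhibition of growth.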

Legend:
Assay in all cases: growth of human tumour cells (NCI), 48 h
CAKI-1 renal = test system: CAKI-1 renal
BT-549 breast = test system: BT-549 breast
786-0 renal = test system: 786-0 renal
HOP-92 NSCLC = test system: HOP-92 NSCLC
COLO 205 colon = test system: COLO 205 colon
HCC-2998 colon = test system: HCC-2998 colon
HS 578T breast = test system: HS 578T breast
EKVX NSCLC = test system: EKVX NSCLC
A498 renal = test system: A498 renal
SK-MEL-28 melanoma = test system: SK-MEL-28 melanoma
A549 NSCLC = test system: A549 NSCLC
SNB-75 CNS = test system: SNB-75 CNS
M14 melanoma = test system: M14 melanoma
DU-145 prostate = test system: DU-145 prostate
SF-268 CNS = test system: SF-268 CNS
OVCAR-8 ovarian = test system: OVCAR-8 ovarian
SW-620 colon = test system: SW-620 colon
RPMI-8226 leukemia = test system: RPMI-8226 leukemia
MOLT-4 leukemia = test system: MOLT-4 leukemia
NCI/ADR-RES ovarian = test system: NCI/ADR-RES ovarian
SN12C renal = test system: SN12C renal
T-47D breast = test system: T-47D breast
HT29 colon = test system: HT29 colon
SF-295 CNS = test system: SF-295 CNS
K-562 leukemia = test system: K-562 leukemia
KM12 colon = test system: KM12 colon
RXF 393 renal = test system: RXF 393 renal
NCI-H23 lung = test system: NCI-H23 lung
ACHN renal = test system: ACHN renal
OVCAR-5 ovarian = test system: OVCAR-5 ovarian
SK-OV-3 ovarian = test system: SK-OV-3 ovarian
SF-539 CNS = test system: SF-539 CNS
MDA-MB-231 breast = test system: MDA-MB-231 breast
UACC-257 melanoma = test system: UACC-257 melanoma
MDA-MB-435 = test system: MDA-MB-435
CCRF-CEM leukemia = test system: CCRF-CEM leukemia
OVCAR-4 ovarian = test system: OVCAR-4 ovarian
SR leukemia = test system: SR leukemia
IGROV1 ovarian = test system: IGROV1 ovarian
NCI-H460 lung = test system: NCI-H460 lung
HOP-62 NSCLC = test system: HOP-62 NSCLC
UO-31 renal = test system: UO-31 renal
HL-60(TB) leukemia = test system: HL-60(TB) leukemia
MCF7 breast = test system: MCF7 breast
PC-3 prostate = test system: PC-3 prostate
OVCAR-3 ovarian = test system: OVCAR-3 ovarian
HCT-15 colon = test system: HCT-15 colon
SK-MEL-5 melanoma = test system: SK-MEL-5 melanoma
MALME-3M melanoma = test system: MALME-3M melanoma
NCI-H226 lung = test system: NCI-H226 lung
TK-10 renal = test system: TK-10 renal
UACC-62 melanoma = test system: UACC-62 melanoma
U251 CNS = test system: U251 CNS
LOX IMVI melanoma = test system: LOX IMVI melanoma
SNB-19 CNS = test system: SNB-19 CNS
HCT-116 colon = test system: HCT-116 colon
SK-MEL-2 melanoma = test system: SK-MEL-2 melanoma

In the case of `COc1ccc(-c2cnoc2-c2ccc(OC)cc2O)cc1`, the GI50 (CAKI-1 renal) is reported as 4.31 µM, the TGI (CAKI-1 renal) is reported as greater than 100 µM and the GI50 (BT-549 breast) is reported as 9.73 µM. The TGI (BT-549 breast) was 35.3 µM, the GI50 (786-0 renal) was 5.31 µM and the TGI (786-0 renal) was 37.5 µM. It also gave a GI50 (HOP-92 NSCLC) of 2420 nM, a TGI (HOP-92 NSCLC) of 27.4 µM and a GI50 (COLO 205 colon) of 9.5 µM. It also gave a TGI (COLO 205 colon) of 30.4 µM, a GI50 (HCC-2998 colon) of 5.27 µM and a TGI (HCC-2998 colon) of 29.8 µM. The GI50 (HS 578T breast) was 1900 nM, the TGI (HS 578T breast) was 6.69 µM and the GI50 (EKVX NSCLC) was 15.5 µM. For the same compound, the TGI (EKVX NSCLC) was greater than 100 µM, the GI50 (A498 renal) was 1780 nM and the TGI (A498 renal) was 8.49 µM. It also gave a GI50 (SK-MEL-28 melanoma) of 5.42 µM, a TGI (SK-MEL-28 melanoma) of 60.5 µM and a GI50 (A549 NSCLC) of 4.08 µM. The TGI (A549 NSCLC) was 69.3 µM, the GI50 (SNB-75 CNS) was 1720 nM and the TGI (SNB-75 CNS) was 9.86 µM. It also gave a GI50 (M14 melanoma) of 2690 nM, a TGI (M14 melanoma) of 15 µM and a GI50 (DU-145 prostate) of 3.85 µM. The TGI (DU-145 prostate) was 15.8 µM, the GI50 (SF-268 CNS) was 6.32 µM and the TGI (SF-268 CNS) was 42.6 µM. The GI50 (OVCAR-8 ovarian) was 4.49 µM, the TGI (OVCAR-8 ovarian) was 30.4 µM and the GI50 (SW-620 colon) was 2050 nM. The TGI (SW-620 colon) was greater than 100 µM, the GI50 (RPMI-8226 leukemia) was 4.98 µM and the TGI (RPMI-8226 leukemia) was 67.4 µM. For the same compound, the GI50 (MOLT-4 leukemia) was 3.36 µM, the TGI (MOLT-4 leukemia) was 22.9 µM and the GI50 (NCI/ADR-RES ovarian) was 1750 nM. It also gave a TGI (NCI/ADR-RES ovarian) of 19.1 µM, a GI50 (SN12C renal) of 5 µM and a TGI (SN12C renal) of 41.1 µM. It also gave a GI50 (T-47D breast) of 8.64 µM, a TGI (T-47D breast) greater than 100 µM and a GI50 (HT29 colon) of 3.54 µM. The TGI (HT29 colon) was 15.3 µM, the GI50 (SF-295 CNS) was 2990 nM and the TGI (SF-295 CNS) was 14.8 µM. The GI50 (K-562 leukemia) was 534 nM, the TGI (K-562 leukemia) was greater than 100 µM and the GI50 (KM12 colon) was 2660 nM. For the same compound, the TGI (KM12 colon) was 15 µM, the GI50 (RXF 393 renal) was 3.4 µM and the TGI (RXF 393 renal) was 11.1 µM. It also gave a GI50 (NCI-H23 lung) of 4.31 µM, a TGI (NCI-H23 lung) of 50.3 µM and a GI50 (ACHN renal) of 9.17 µM. For the same compound, the TGI (ACHN renal) was greater than 100 µM, the GI50 (OVCAR-5 ovarian) was 13.5 µM and the TGI (OVCAR-5 ovarian) was greater than 100 µM. For the same compound, the GI50 (SK-OV-3 ovarian) was 4.17 µM, the TGI (SK-OV-3 ovarian) was 24 µM and the GI50 (SF-539 CNS) was 3.66 µM. For the same compound, the TGI (SF-539 CNS) was 16.6 µM, the GI50 (MDA-MB-231 breast) was 3.32 µM and the TGI (MDA-MB-231 breast) was 27.6 µM. The GI50 (UACC-257 melanoma) was 6.9 µM, the TGI (UACC-257 melanoma) was 41.6 µM and the GI50 (MDA-MB-435) was 314 nM. It also gave a TGI (MDA-MB-435) of 1600 nM, a GI50 (CCRF-CEM leukemia) of 3.09 µM and a TGI (CCRF-CEM leukemia) greater than 100 µM. It also gave a GI50 (OVCAR-4 ovarian) of 10.5 µM, a TGI (OVCAR-4 ovarian) greater than 100 µM and a GI50 (SR leukemia) of 628 nM. For the same compound, the TGI (SR leukemia) was 13 µM, the GI50 (IGROV1 ovarian) was 7.54 µM and the TGI (IGROV1 ovarian) was 92.1 µM. For the same compound, the GI50 (NCI-H460 lung) was 3.24 µM, the TGI (NCI-H460 lung) was 12.4 µM and the GI50 (HOP-62 NSCLC) was 4.6 µM. For the same compound, the TGI (HOP-62 NSCLC) was 35.7 µM, the GI50 (UO-31 renal) was 11.6 µM and the TGI (UO-31 renal) was 53.3 µM. The GI50 (HL-60(TB) leukemia) was 2930 nM, the TGI (HL-60(TB) leukemia) was 16.8 µM and the GI50 (MCF7 breast) was 2850 nM. It also gave a TGI (MCF7 breast) of 85.2 µM, a GI50 (PC-3 prostate) of 4.52 µM and a TGI (PC-3 prostate) of 54.3 µM. For the same compound, the GI50 (OVCAR-3 ovarian) was 2320 nM, the TGI (OVCAR-3 ovarian) was 5.76 µM and the GI50 (HCT-15 colon) was 2560 nM. It also gave a TGI (HCT-15 colon) greater than 100 µM, a GI50 (SK-MEL-5 melanoma) of 3.52 µM and a TGI (SK-MEL-5 melanoma) of 14.2 µM. For the same compound, the GI50 (MALME-3M melanoma) was 14.1 µM, the TGI (MALME-3M melanoma) was 49.5 µM and the GI50 (NCI-H226 lung) was 12.8 µM. The TGI (NCI-H226 lung) was 55.6 µM, the GI50 (TK-10 renal) was 11.8 µM and the TGI (TK-10 renal) was 47.5 µM. For the same compound, the GI50 (UACC-62 melanoma) was 2610 nM, the TGI (UACC-62 melanoma) was 20.2 µM and the GI50 (U251 CNS) was 3.58 µM. The TGI (U251 CNS) was 18.3 µM, the GI50 (LOX IMVI melanoma) was 6.9 µM and the TGI (LOX IMVI melanoma) was 26.2 µM. It also gave a GI50 (SNB-19 CNS) of 5.29 µM, a TGI (SNB-19 CNS) greater than 100 µM and a GI50 (HCT-116 colon) of 2820 nM. It also gave a TGI (HCT-116 colon) of 16.5 µM, a GI50 (SK-MEL-2 melanoma) of 3.33 µM and a TGI (SK-MEL-2 melanoma) of 11.8 µM.
